Measured values published in patent publication US4537886A, “β-lactam antibacterial agents and compositions containing them” (Beecham Group p.l.c., priority 1982, dated 1985).
Values after ≈ are worked out from the molar mass of the structure shown. Structures can show the parent of a compound that is named as a salt. Where two headings read alike, the source gives them in different places.

System: E. coli NCTC 10418
Assay: MIC against E. coli NCTC 10418
Format: cell-based
Conditions: Escherichia coli
[1] = NCTC10418, read-out: MIC against E. coli NCTC 10418

Row | Compound | MIC [1] [µg/mL] | other results
1 | Cc1c(C(=O)N[C@@H](C(=O)N[C@@H]2C(=O)N3[C@@H]2SC(C)(C)[C@@H]3C(=O)O)c2ccccc2)c(=O)n(-c2ccccc2)n1C [Example 1, 6β-[D,2-(2,3-dimethyl-1-phenyl-3-pyrazolin-5-one-4-carbonylamino)-2-phenyl]acetamido penicillanic acid, sodium salt] | – | MIC (NCTC10418, E. coli NCTC 10418, unit as printed in Example 1, read-out: MIC against E. coli NCTC 10418): 5 µg/mL
2 | CC1(C)S[C@@H]2[C@H](NC(=O)[C@H](NC(=O)c3cn(-c4ccc(O)cc4)[nH]c3=O)c3ccccc3)C(=O)N2[C@H]1C(=O)O [Example 15, 6β-[D,2-(2-(4-Hydroxyphenyl)-3-pyrazolin-5-one-4-carbonylamino)-2-phenyl] acetamido penicillanic acid (sodium salt)] | 2 | –
3 | COc1nn(-c2ccc([N+](=O)[O-])cc2)cc1C(=O)N[C@@H](C(=O)N[C@@H]1C(=O)N2[C@@H]1SC(C)(C)[C@@H]2C(=O)O)c1ccccc1 [Example 21, 6-β-[D,2-([1H]-3-Methoxy-1-[4-nitrophenyl]pyrazole-4-carbonylamino)-2-phenyl]acetamido penicillanic acid, sodium salt] | 8 | –
4 | CC1(C)S[C@@H]2[C@H](NC(=O)[C@H](NC(=O)c3cn(-c4ccc(N)cc4)[nH]c3=O)c3ccc(O)cc3)C(=O)N2[C@H]1C(=O)O [Example 14, 6β-[D,2-(2-(4-Aminophenyl)-3-pyrazolin-5-one-4-carbonylamino)-2-(4-hydroxyphenyl)] acetamido penicillanic acid (sodium salt)] | 2.5 | –
5 | CC1(C)S[C@@H]2[C@H](NC(=O)[C@H](NC(=O)c3cn(-c4ccc([N+](=O)[O-])cc4)[nH]c3=O)c3ccccc3)C(=O)N2[C@H]1C(=O)O [Example 11, 6β-[D,2-(2-(4-Nitrophenyl)-3-pyrazolin-5-one-4-carbonylamino)-2-phenyl] acetamido penicillanic acid (sodium salt)] | 2.5 | –
6 | CC1(C)S[C@@H]2[C@H](NC(=O)[C@H](NC(=O)c3cn(-c4ccc(N)cc4)[nH]c3=O)c3ccccc3)C(=O)N2[C@H]1C(=O)O [Example 12, 6β-[D,2-(2-(4-Aminophenyl)-3-pyrazolin-5-one-4-carbonylamino)-2-phenyl] acetamido penicillanic acid (sodium salt)] | 5 | –
7 | CC1(C)S[C@@H]2[C@H](NC(=O)[C@H](NC(=O)c3cn(-c4ccc(Br)cc4)[nH]c3=O)c3ccccc3)C(=O)N2[C@H]1C(=O)O [Example 17, 6β-[D,2-(2-p-Bromophenyl-3-pyrazolin-5-one-4-carbonylamino)-2-phenyl]acetamido penicillanic acid, sodium salt] | 1 | –
8 | Cc1c(C(=O)N[C@@H](C(=O)N[C@@H]2C(=O)N3[C@@H]2SC(C)(C)[C@@H]3C(=O)O)c2ccccc2)c(=O)[nH]n1-c1ccccc1 [Example 16, 6β-[D,2-(3-Methyl-2-phenyl-3-pyrazolin-5-one-4-carbonyl-amino)-2-phenyl]acetamido penicillanic acid, sodium salt] | 25 | –
9 | Cn1cc(C(=O)N[C@@H](C(=O)N[C@@H]2C(=O)N3[C@@H]2SC(C)(C)[C@@H]3C(=O)O)c2ccccc2)c(=O)n1Cc1ccccc1 [Example 9, 6β-[D,2-(1-Benzyl-2-methyl-3-pyrazolin-5-one-4-carbonylamino)-2-phenyl]acetamido penicillanic acid (sodium salt)] | 5 | –
10 | CC1(C)S[C@@H]2[C@H](NC(=O)[C@H](NC(=O)c3cn(-c4ccc([N+](=O)[O-])cc4)[nH]c3=O)c3ccc(O)cc3)C(=O)N2[C@H]1C(=O)O [Example 13, 6β-[D,2-(2-(4-Nitrophenyl)-3-pyrazolin-5-one-4-carbonylamino)-2-(4-hydroxyphenyl)] acetamido penicillanic acid (sodium salt)] | 5 | –
11 | Cc1c(C(=O)N[C@@H](C(=O)N[C@@H]2C(=O)N3[C@@H]2SC(C)(C)[C@@H]3C(=O)O)c2ccc(O)cc2)c(=O)n(-c2ccccc2)n1C [Example 2, 6β-[D,2-(2,3-dimethyl-1-phenyl-3-pyrazolin-5-one-4-carbonylamino)-2-(4-hydroxyphenyl)]acetamido penicillanic acid, sodium salt] | 12.5 | –
12 | CCn1c(C)c(C(=O)N[C@@H](C(=O)N[C@@H]2C(=O)N3[C@@H]2SC(C)(C)[C@@H]3C(=O)O)c2ccccc2)c(=O)n1-c1ccc(N)cc1 [Example 7, 6β-[D2,-(2-Ethyl-3-methyl-1-(4-aminophenyl)-3-pyrazolin-5-one-4-carbonylamino)-2-phenyl]acetamido penicillanic acid (sodium salt)] | – | MIC (NCTC 10418 / NCTC 1048, E. coli NCTC 1048 as printed in Example 7, read-out: MIC against E. coli NCTC 1048): 50 µg/mL
13 | CC(=O)OCC1=C(C(=O)O)N2C(=O)[C@@H](NC(=O)[C@H](NC(=O)c3cn(-c4ccc(N)cc4)[nH]c3=O)c3ccccc3)[C@H]2SC1 [Example 19, 7β-[D,2-(2-p-Aminophenyl-3-pyrazolin-5-one-4-carbonylamino)-2-phenyl]acetamido-3-acetoxymethylceph-3-em-4-carboxylic acid, sodium salt] | 5 | –
14 | Cn1cc(C(=O)N[C@@H](C(=O)N[C@@H]2C(=O)N3[C@@H]2SC(C)(C)[C@@H]3C(=O)O)c2ccccc2)c(=O)n1-c1ccccc1 [Example 8, 6β-[D,2-(2-Methyl-1-phenyl-3-pyrazolin-5-one-4-carbonylamino)-2-phenyl]acetamido penicillanic acid (sodium salt)] | 10 | –
15 | Cc1ccc(-n2cc(C(=O)N[C@@H](C(=O)N[C@@H]3C(=O)N4[C@@H]3SC(C)(C)[C@@H]4C(=O)O)c3ccccc3)c(=O)[nH]2)cc1 [Example 23, 6β-[D,2-(2-[4-Methylphenyl]pyrazol-3-in-5-one-4-carbonylamino)-2-phenyl] acetamido penicillanic acid, sodium salt] | 10 | –
16 | COc1nn(-c2ccc(N)cc2)cc1C(=O)N[C@@H](C(=O)N[C@@H]1C(=O)N2[C@@H]1SC(C)(C)[C@@H]2C(=O)O)c1ccccc1 [Example 22, 6β-[D,2-([1H]-1-(4-Aminophenyl)-3-methoxypyrazole-4-carbonylamino)-2-phenyl]acetamido penicillanic acid, sodium salt] | 16 | –
17 | COc1ccc(-n2cc(C(=O)N[C@@H](C(=O)N[C@@H]3C(=O)N4[C@@H]3SC(C)(C)[C@@H]4C(=O)O)c3ccccc3)c(=O)[nH]2)cc1 [Example 20, 6β-[D,2-(2-[4-Methoxyphenyl]-pyrazol-3-in-5-one-4-carbonylamino)-2-phenyl]acetamido penicillanic acid, sodium salt] | 0.25 | –
18 | CCn1c(C)c(C(=O)N[C@@H](C(=O)N[C@@H]2C(=O)N3[C@@H]2SC(C)(C)[C@@H]3C(=O)O)c2ccccc2)c(=O)n1-c1ccc([N+](=O)[O-])cc1 [Example 6, 6β-[D,2-(2-Ethyl-3-methyl-1-(4-nitrophenyl)-3-pyrazolin-5-one-4-carbonylamino)-2-phenyl]acetamido penicillanic acid] | 25 (≈ 40.2 µM) | –
19 | CC1(C)S[C@@H]2[C@H](NC(=O)[C@H](NC(=O)c3cnn(-c4ccccc4)c3O)c3ccccc3)C(=O)N2[C@H]1C(=O)O [Example 4, 6β-[D,2-(2H,3-Hydroxy-2-phenylpyrazole-4-carbonylamino)-2-phenyl]acetamido penicillanic acid (sodium salt)] | 2 | –
20 | COc1c(C(=O)N[C@@H](C(=O)N[C@@H]2C(=O)N3[C@@H]2SC(C)(C)[C@@H]3C(=O)O)c2ccccc2)cnn1-c1ccccc1 [Example 5, 6β-[D,2-(2H,3-Methoxy-2-phenyl-pyrazole-4-carbonylamino)-2-phenyl]acetamido penicillanic acid, sodium salt] | 12.5 | –
21 | Cc1c(C(=O)N[C@@H](C(=O)N[C@@H]2C(=O)N3[C@@H]2SC(C)(C)[C@@H]3C(=O)O)c2ccccc2)c(=O)n(-c2ccc(Br)cc2)n1C [Example 10, 6β-[D,2-(2,3-Dimethyl-1-(4-bromophenyl)-3-pyrazolin-5-one-4-carbonylamino)-2-phenyl]acetamido penicillanic acid (sodium salt)] | 5 | –
22 | CC1(C)S[C@@H]2[C@H](NC(=O)[C@H](NC(=O)c3cn(-c4ccccc4)[nH]c3=O)c3ccccc3)C(=O)N2[C@H]1C(=O)O [Example 3, 6β-[D,2-(2-phenyl-3-pyrazolin-5-one-4-carbonylamino)-2-phenyl]acetamido penicillanic acid, sodium salt] | 2.5 | –
23 | CC(=O)OCC1=C(C(=O)O)N2C(=O)[C@@H](NC(=O)[C@H](NC(=O)c3cn(-c4ccc([N+](=O)[O-])cc4)[nH]c3=O)c3ccccc3)[C@H]2SC1 [Example 18, 7β-[D,2-(2-p-Nitrophenyl-3-pyrazolin-5-one-4-carbonyl-amino)-2-phenyl]acetamido-3-acetoxymethylceph-3-em-4-carboxylic acid, sodium salt] | 1 | –
